Measurements published in US20130022692A1, “Expression Modulator For Clock Gene Period” (SHISEIDO COMPANY, LTD., priority 2010, published 2013).

Tested on: Period1 gene
Test: Period1 gene expression in cultured human skin fibroblastic cells (RT-PCR)
Type: cell-based
Conditions: for Induction of expression rhythm and increase of Period1 gene expression: peak at 2 hours after stimulation, result in words
Protocol: As the cultured human fibroblastic cells, fibroblastic cells from normal human skin were purchased (Cell Application, Inc.) and used in the experiments. They were inoculated in DMEM medium supplemented with 10% FBS, 20 mM HEPES, Glutamax and antibacterial agents and cultured at 37° C. in 5% CO2. On the 6th day of culture, 50 ng/mL of cortisol or 10 μM of forskolin was added to each wells, and the samples were harvested at various times after time 0, which was defined as the time immediately after the addition of cortisol or forskolin. RNA was extracted from the cells with a commercially available RNA extraction kit, and the amounts of expression of the intended genes were measured by RT-PCR technology using commercially available PCR primers (Perfect Real Time Primer, Takara Bio). As for clock genes, amounts of expression of Period1 and Bmal1, which are involved in the core system, were determined. Similarly, the amounts of expression of a housekeeping gene RPLP0 were quantified and used as an internal standard to calculate the relative expression of the intended genes to RPLP0. […] Test substances were evaluated for the expression modulating effect on a Period gene based on the amount of gene expression at 2 hours after stimulation. To confirm the induction of expression rhythm for the Period gene, the amount of expression of the Period1 gene at 16 hours after stimulation was also determined. Fibroblastic cells from normal human skin (Cell Application, Inc.) were inoculated according to a method similar to those used above. Each test substance was added on the 6th day of culture to a final concentration of 100 ppm, and the cells were harvested 2 and 16 hours after stimulation. […] The amounts of expression of the Period1 gene were determined by RT-PCR technology using commercially available PCR primers (Perfect Real Time Primer, Takara Bio). The amounts of gene expression of a housekeeping gene RPLP0 were quantified and used as an internal standard to calculate the relative expression of the target genes with respect to RPLP0.

| SMILES | Induction of expression rhythm and increase of Period1 gene expression | Relative amount of Period1 gene expression (2 hours) (test substance 100 ppm, 2 hours after stimulation, relative to RPLP0, control 0.23, *p < 0.05, **p < 0.01) |
| --- | --- | --- |
| C=C1CC/C=C(\C)CC[C@@H]2[C@@H]1CC2(C)C [beta-Caryophyllene] | significantly increase amounts of gene expression of Period1 | 0.44* |
| C[C@]12CCC(=O)C=C1CC[C@@H]1[C@@H]2[C@@H](O)C[C@@]2(C)[C@H]1CC[C@]2(O)C(=O)CO [cortisol, reference compound] | significantly increase amounts of gene expression of Period1 |  |
